The record followed here is patent US11020360B2, “Methods, compounds, compositions and vehicles for delivering 3-amino-1-propanesulfonic acid” (Bellus Health, Inc., priority 2006, dated 2021).

What is called Tmax is the time at which the peak concentration occurs. One may read the half-life as the time in which the quantity being followed falls by half. Read a low half-life as rapid decline. The term Cmax denotes the maximum level reached in the sampled fluid or tissue. One may read the AUC(0-inf) as the area under the concentration-time curve extrapolated to infinity. High values mean high exposure, low ones low exposure.

Values joined by “and” are separate entries in the source; they are usually repeats but may differ in a detail not shown here. Equal entries are not always repeated. Structures can show the parent of a compound that is named as a salt.

Data set [1] relates to primary rat neuron culture. Kind of data set: In vitro metabolism of 3APS in primary rat neuron culture. In kind it is in vitro ADME. The following applies: primary neuron culture media. As to the method: The metabolism of 3APS was also studied in vitro in different types of cellular models. In some cases, the metabolism of 3APS was compared with that of γ-amino butyric acid (GABA).
The conversion of 3APS to 2-carboxyethanesulfonic acid was time-dependent and cell concentration-dependent. Incubation of 3APS (400 μM initial concentration) for six days in the cell culture media (containing 800,000 cells) produced with 48 μM of 2-carboxyethanesulfonic acid. Under the same experimental conditions, 5.4 μM succinic acid was detected starting from GABA (400 μM initial concentration).

The nature of data set [2]: Metabolic profiling of 14C-3APS in rats. In kind it is in vivo, male Sprague-Dawley rats. As to the method: (§1) Three single dose studies were conducted in mice, rats and dogs to determine the metabolic profile of ^14C-3APS in plasma, urine and feces. In the first study, twenty-seven male CD-1 mice received a single dose of 100 mg/kg (20 μCi/animal) of ^14C-3APS by oral gavage. Blood samples (3 animals/time point) were collected for 12 hr following drug administration while urine and feces (3 animals/time point) samples were collected for 96 hr. In the second study, eight male Sprague-Dawley rats received a single dose of 100 mg/kg (50 μCi/animal) of ^14C-3APS by oral gavage while in the third study, three male Beagle dogs received a single dose of 100 mg/kg (30 μCi/kg) of ^14C-3APS by oral gavage. For the rat and dog studies, blood samples were collected for 24 hr following drug administration while urine and feces samples were collected for 72 hr. All samples were analyzed for total radioactivity using appropriate sample preparation procedures and scintillation counting. Plasma and urine samples were also analyzed for 3APS and 3APS metabolites (2-carboxyethanesulfonic acid, 3-hydroxy-1-propanesulfonic acid and 3-acetylamino-1-propanesulfonic acid) concentrations using qualified HPLC and MS/MS methods.

A short description of data set [3]: Single oral and IV administration of 14C-3APS to rats. In kind it is in vivo, male Sprague-Dawley rats. The following applies: for AUC0-∞ / AUC(0-inf): 100 mg/kg 14C-3APS, rats, 100 mg/kg; for AUC(0-inf): male, Sprague-Dawley, rat, plasma. As to the method: The purpose of this study was to investigate the absorption, metabolism and excretion profiles of ^14C-3APS following a single intravenous bolus and oral administration to rats. Thirty-six male Sprague-Dawley rats received a single 100 mg/kg (˜50 μCi/animal) dose of ^14C-3APS by an IV bolus injection (water or isotonic saline solution) and an additional 36 male rats received the same dose level by oral gavage (in water). Blood, urine, feces, brain and CSF samples were collected for up to 72 hr following dose administration. Plasma, urine, brain and CSF concentrations of 3APS and 2-carboxyethanesulfonic acid (3APS major metabolite) were measured using LC and MS/MS detection method. Plasma, urine, feces, brain and CSF samples were analyzed for total radioactivity using appropriate sample preparation procedures and scintillation counting.

Data set [4] is described as follows: Absorption, excretion and plasma kinetics of 14C-3APS in humans. In kind it is in vivo, human. An excerpt:
Following the identification of 3APS metabolites, plasma and urine samples from this human AME study were reanalyzed for 3APS and 3APS metabolite (2-carboxyethanesulfonic acid, 3-hydroxy-1-propanesulfonic acid and 3-acetylamino-1-propanesulfonic acid) concentrations using qualified HPLC and MS/MS methods to determine the metabolic profile of ^14C-3APS in human.

Data set [5] in a line: Metabolic profiling of 14C-3APS in mice. Type of data set: in vivo, male CD-1 mice. As to the method:
as §1

A short description of data set [6]: Metabolic profiling of 14C-3APS in dogs. In kind it is in vivo, male Beagle dogs. As to the method:
as §1

Data set [7] is described as follows: Stability in water, at pH 1.5 and PBS. In kind it is physicochemical. As to conditions: 37° C., 60 min. As to the method:
Stability of exemplary compounds was determined in water, aqueous acidic solution (pH 1.5, HCl) and PBS (phosphate buffered saline) solution using ESI-MS (electrospray ionization mass spectrometry) as the detecting instruments. In general a 2 μg/mL pro-drug solution containing 1 μg/ml IS (internal standard) was prepared and incubated for 60 min. For water stability the incubation was performed at room temperature and for stability in acidic solution and in buffer. The incubation temperature was 37° C. Samples were analyzed for prodrug content at time points 0 and 60 min. using MS. The % changes in peak area ratio after 60 minutes for each test compound tested are calculated using the average values from six replicate runs. The compounds tested included Compounds A1 to A19, Compounds B5 and B6 and Compounds C1 to C26. Except for C26 which was found unstable at pH 1.5 and in PBS, all other compounds were judged to be stable under all conditions tested with less than about 15%-20% concentration change after 60 minutes.

The nature of data set [8]: Mouse whole blood stability. Type of data set: in vitro ADME. The following applies: 37° C. As to the method:
Test compounds were incubated for a total of 240 minutes at 37° C. in whole mouse and whole human blood. The compounds were added at time-point 0 and sample aliquots were withdrawn at each time point (usually 0, 60 and 240 minutes). The samples were extracted using protein precipitation. Analysis of extracted samples was achieved using HPLC with MS detection. Several types of HPLC columns and mobile phase were used depending of the polarity of the compound. The compound stability was determined by the % of compound remaining at 240 minutes (peak response of compound at 240 minutes/peak response at 0 minutes×100).

Data set [9] in a line: Bioavailability of exemplary compounds in mice (3APS quantified in plasma). Type of data set: in vivo. The following applies: compared with 3APS. As to the method:
Selected exemplary compounds were tested for bioavailability in mice. Bioavailability estimates are performed for 3APS after administration of molar equivalent the selected compounds. […] The animals are anesthetized with isoflurane before blood collection (approximately 45 sec). Samples are collected at 5, 30, 60, 120, 180, 240 and 360 min post intravenous administration and at 15, 30, 60, 120, 180, 240 and 360 min post oral administration. One animal is used to obtain a baseline sample (pre-dose sample). Blood samples are collected into Sarstedt™ micro tubes (EDTA KE/1.3 ml), kept on ice until centrifugation at 4° C. at a minimum speed of 3000 rpm (1620 G) for 10 min. Plasma samples are transferred into Eppendorf™ tubes, immediately placed on dry ice and stored at −80° C. Plasma samples are stored frozen at […] pending analysis.
Compounds in mouse plasma are extracted using protein precipitation. Quantitation of 3APS in mouse plasma matrix is achieved using LC-MS detection. Sample concentration is calculated using a calibration curve.

The nature of data set [10]: PK brain and plasma levels of oral Compound A2 and 3-APS in mice. As to conditions: oral 0.18 mmol/kg. Type of data set: in vivo. As for the experimental part: Compounds A2 and 3-aminopropanesulfonic acid were tested for pharmacokinetic parameters in mice. Parmacokinetic parameters (Cmax, Tmax, T½, AUC) are evaluated for 3APS after administration of a molar equivalent of each compound. Blood samples (approximately 1 ml) and brain samples are collected from each of 3 animals at time points 5, 15, 30 minutes, 1, 2, 4, 6, 12, and 24 hours. […] A 2-fold increase in plasma concentration (Cmax) of 3-APS was observed when orally administering Compound A2 compared to 3-APS.

The mark [11] stands for this setting: Rat plasma, analyte after single oral 100 mg/kg 14C-3APS.
[12] abbreviates: male, Sprague-Dawley, rat, plasma, po, 100 mg/kg, Rat plasma, analyte after single oral 100 mg/kg 14C-3APS.
The mark [13] stands for this setting: IV, individual animals 1001-1004.
Where [14] appears, read: PO, individual animals 3001-3004.
Setting [15] is: Mouse plasma, analyte after single oral 100 mg/kg 14C-3APS.
Where [16] appears, read: male, CD-1, mouse, plasma, po, 100 mg/kg, Mouse plasma, analyte after single oral 100 mg/kg 14C-3APS.

Consider `O=C(CCNNC(=O)c1ccncc1)NCc1ccccc1` [Nialamide], for which the “effect on the conversion of 3APS to 2-carboxyethanesulfonic acid” value (“effect on the conversion of 3APS” below) in data set [1] is on record as “reduced the formation of 2-carboxyethanesulfonic acid (from 3APS) but to a lesser extent”.

On to `NCC1(CC(=O)O)CCCCC1` [gabapentin], for which, in [1], the “effect on the conversion of 3APS” value is reported as “no significant effect”.

With `C=CC(N)CCC(=O)O` (centres unmarked) [vigabatrin], the “effect on the conversion of 3APS” value in [1] is listed as “significantly inhibited”.

Turning to `O=C(O)CCS(=O)(=O)O` [2-carboxyethanesulfonic acid], the AUC0-τ in data set [2] (setting [11]) amounted to 12.7 µmol·min/mL; in data set [5] (setting [15]), 7.26 µmol·min/mL; in data set [6] (Dog plasma, analyte after single oral 100 mg/kg 14C-3APS) it was 30.5 µmol·min/mL. In addition, the “AUC∞” value in data set [2] (setting [11]) was 13.6 µmol·min/mL; in data set [5] (setting [15]) it was 7.56 µmol·min/mL. The molecule further gave a T1/2 in data set [2] (Rat plasma, analyte after single oral 100 mg/kg 14C-3APS, 100 mg/kg) of 3.99 h. The “% of Total Radioactivity, Plasma” value in data set [2] (Rat, AUC0-∞ analyte/AUC total radioactivity, single oral 100 mg/kg 14C-3APS) came out at 30%; in data set [5] (Mouse, AUC0-∞ analyte/AUC total radioactivity, single oral 100 mg/kg 14C-3APS) it was 30%. The “% of Total Radioactivity, Urine” value in data set [2] (Rat, amount excreted, single oral 100 mg/kg 14C-3APS) was 62%; in data set [5] (Mouse, amount excreted, single oral 100 mg/kg 14C-3APS, 100 mg/kg), 62%; in [6] (Dog, amount excreted, single oral 100 mg/kg 14C-3APS, 100 mg/kg), 77%. The Tmax in data set [2] (setting [12]) is 4 h; in data set [5] (setting [16]) it was 2 h; in data set [6] (male, Beagle, dog, plasma, po, 100 mg/kg, Dog plasma, analyte after single oral 100 mg/kg 14C-3APS) it was 12 h. Further, the half-life in data set [2] (setting [12]) is roughly 4 h; in [5] (setting [16]), roughly 2 h. Moreover, the Cmax worked out at 23.4 µM in [2] (male, Sprague-Dawley, Rat plasma, analyte (3APS or metabolite) after single oral 100 mg/kg 14C-3APS); 18 µM in data set [5] (male, CD-1, Mouse plasma, analyte (3APS or metabolite) after single oral 100 mg/kg 14C-3APS); 31.2 µM in [6] (male, Beagle, Dog plasma, analyte (3APS or metabolite) after single oral 100 mg/kg 14C-3APS). Also, the “AUC0-∞” value in [3] (setting [13]) was 144 µM·h and 184 µM·h and 125 µM·h; in data set [3] (setting [14]), 153 µM·h and 177 µM·h and 229 µM·h. Also, the “% of total radioactivity (AUC0-∞ analyte/AUC total radioactivity)” value is 6.5% and 9.1% and 9.8% and 9.9% in data set [3] (setting [13]); 26.5% and 21.4% and 28.2% and 29.3% in data set [3] (setting [14]). The area under the curve AUC(0-inf) turned out to be 140 µM·h in [3] (iv, Mean); 105 µM·h in data set [3] (iv, individual animals 1001-1004); 198 µM·h in [3] (po, Mean); 232 µM·h in data set [3] (po, individual animals 3001-3004). For the same molecule, in data set [4] (healthy subjects, analyte after oral 14C-3APS), the “time of maximum plasma concentration” value came to 6.5 h. The “% of total radioactivity in plasma based on AUC0-τ” value in data set [4] (healthy subjects, oral 14C-3APS) was 49%. Further, the “% of total amount of radioactivity excreted in urine” value in data set [4] (human urine) is on record as 79%.

For `Cc1oc(=O)oc1COC(=O)NCCCS(=O)(=O)O` [Compound C26, 3-({[(5-methyl-2-oxo-1,3-dioxol-4-yl)methoxy]carbonyl}amino)-1-propanesulfonic Acid Sodium Salt], in data set [7], the “Stability in PBS” value is given as “unstable” and the “Stability in aqueous acidic solution (pH 1.5, HCl)” value was “unstable”.

On to `CC(C)[C@H](N)C(=O)NCCCS(=O)(=O)O` [Compound A2], for which the “Blood stability (% of compound remaining after 240 min.) Mouse Blood” value in data set [8] is “++ (++: 30-75%)”. In addition, the “effect on bioavailability of 3APS” value in data set [9] is “increasing the bioavailability of 3APS”. For the same molecule, the “Brain concentration of 3-APS” value in [10] was “observed”.
